Values after ≈ are worked out from the molar mass of the structure shown. Read-outs that look alike come from different tables or passages of the source. Marks after values point to notes of the source that are not given here. Where a SMILES comes first, the peptide text is derived from it. Bridges are numbered along the chain shown (N, C = ends). [ ]: non-standard residue; d: D form. The star is where a group is joined. X17 = CC(C)C[C@@H]1CNC[C@@H](C(=O)*)C1; X1 = NC[C@@H](CC(=O)*)c1cccc(Cl)c1; Dab = NCC[C@H](N)C(=O)O; Dap = NC[C@H](N)C(=O)O
Experiments:
[1] = Kidney drug level after subcutaneous dose in mouse; type: in vivo; conditions: for Drug Level in Kidney 4 h / Drug Level in Kidney 16 h: in vivo, sc, 17.2 mg/kg
Summary of the method: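 Mice were euthanised four hours after subcutaneous dosing. Both kidneys were trimmed, weighed, snap-frozen, then homogenised with zirconium oxide beads. After centrifugation (13,000 rpm, 6 °C, 10 min), supernatants were analysed by LC-MS-MS.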

[2] = test system: HK-2 cells; assay: In vitro renal cell toxicity assay (HK-2); type: cell-based
Summary of the method: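 HK-2 cells seeded 7,500/well, adhered overnight, then exposed to compound for 24 h at 37° C, 5% CO2, with 5% water and 0.5% DMSO. Background-subtracted, vehicle-normalised dose-response fitted with bottom fixed at zero; IC50 reported relative to PMB in the same run, median where repeated.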

[3] = Renal toxicity grading by urinary biomarkers (Table A); type: in vivo, mouse; parameters: key: −: indistinguishable to vehicle control; ++++: strong response from all biomarkers; conditions: 4 doses 8 h apart at 25 mg free base/kg/dose or 4 days at 17.2 mg free base/kg/dose; urine 16-24 h
[4] = Renal toxicity in mice, 17.2 mg/kg sc three times per day, urinary biomarkers; type: in vivo, mouse; conditions: albumin, cystatin C, KIM-1; mice 17.2 mg free base/kg three times per day
Method: Starting immediately after the first dose on day 4, mice were transferred to individual metabolic cages and urine was collected over the following 24 hours for determination of biomarker levels (albumin, cystatin C, KIM-1).
PMB values show the range from 4 experiments and colistin from 2 experiments.
Elevation of albumin, cystatin C or KIM-1 in the urine are signs of renal damage.

[5] = Renal toxicity in mice, 25 mg/kg sc four doses at 8 hr intervals, biomarkers and histopathology; type: in vivo, mouse; conditions: mice (n=6), sc 25 mg free base/kg
Method: After the fourth dose animals were transferred into individual metabolic cages and urine collected for 24 hours for determination of urinary biomarkers. After collecting urine mice were euthanised and the kidneys harvested for histopathology.

[6] = test system: P. aeruginosa ATCC 27853; type: cell-based; conditions: ATCC 27853
Method: (§1) The inoculum was prepared by making a direct suspension of isolated colonies (selected from an 18-24 hour Mueller-Hinton agar plate) adjusted to the 0.5 McFarland standard. […] The assays were performed in duplicate. […] The MIC values are quoted in μg/mL.

[7] = test system: A. baumannii NCTC 13424; type: cell-based; conditions: NCTC 13424
Method: as §1

[8] = test system: E. coli CA58; type: cell-based; conditions: CA58
Summary of the method: (§2)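 MIC (μg/mL), duplicate runs; median value where a compound was tested repeatedly. Inoculum: colonies from 18-24 h Mueller-Hinton agar, suspended directly to 0.5 McFarland.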

[9] = test system: K. pneumoniae CA64; type: cell-based; conditions: CA64
Summary of the method: as §2

[10] = test system: P. aeruginosa CCUG 59347; type: cell-based; conditions: CCUG 59347
Summary of the method: as §2

[11] = Renal toxicity in Cynomolgus monkey, iv infusion 7 days; type: in vivo; conditions: Cynomolgus monkey (n=3), 20 mg/kg/dose, 3 times per day, 7 days
Method: In a separate experiment male monkeys (n=3) were dosed with PMB for the same period at 4 mg/kg/dose. In both experiments control animals were dosed 3 times per day with saline.
At the end of the 7 day period blood was sampled and the serum levels of blood urea nitrogen and creatinine determined as indicators of renal damage.
Kidneys were harvested at the end of the 7 day dosing period and examined microscopically.

[12] = test system: P. aeruginosa IHMA 644636; type: cell-based; conditions: IHMA 644636
Method: (§3) MIC values (μg/mL) were determined by broth microdilution under CLSI conditions.

[13] = test system: P. aeruginosa IHMA 517175; type: cell-based; conditions: IHMA 517175
Method: as §3

[14] = test system: E. coli CDF-1 (MCR-1); type: cell-based; conditions: CDF-1 (MCR-1)
Method: as §3

[15] = test system: P. aeruginosa ATCC 27853; type: cell-based; conditions: ATCC 27853; remark: listed apart in the source
Method: as §3

[16] = test system: A. baumannii NCTC 13301 (OXA-23); type: cell-based; conditions: NCTC 13301
Method: as §3

[17] = test system: K. pneumoniae IHMA 580884; type: cell-based; conditions: IHMA 580884
Method: as §3

[18] = test system: K. pneumoniae IHMA 520329 (SHV-12, KPC-2); type: cell-based; conditions: IHMA 520329 (SHV-12, KPC-2)
Method: as §3

[19] = test system: E. coli IHMA 940398; type: cell-based; conditions: IHMA 940398
Method: as §3

[20] = test system: A. baumannii IHMA 517303; type: cell-based; conditions: IHMA 517303
Method: as §3

[21] = test system: A. baumannii IHMA 851735 (OXA-23); type: cell-based; conditions: IHMA 851735 (OXA-23)
Method: as §3

CC(C)C[C@@H]1CNC[C@@H](C(=O)N[C@H](C(=O)N[C@@H](CN)C(=O)N[C@H]2CCNC(=O)[C@H]([C@@H](C)O)NC(=O)[C@H](CCN)NC(=O)[C@H](CCN)NC(=O)[C@H](CC(C)C)NC(=O)[C@@H](CC(C)C)NC(=O)[C@H](CCN)NC2=O)[C@@H](C)O)C1 [Reference Example D77, reference compound] (X17-T[Dap][Dab][Dab][dL]L[Dab][Dab]T; lactam 3-C)
Drug Level in Kidney 4 h ([1]; mouse): 516 µg/g kidney | Drug Level in Kidney 16 h ([1]; mouse): 264 µg/g kidney | Cytotoxicity (measured IC50 relative to that recorded for Polymyxin B) [2]: 23** | Renal toxicity (grade from urinary KIM-1, albumin, cystatin C) [3]: ++++

CC(C)C[C@@H]1NC(=O)[C@@H](Cc2ccccc2)NC(=O)[C@H](CCN)NC(=O)[C@@H](NC(=O)[C@H](CN)NC(=O)[C@@H](NC(=O)C[C@H](CN)c2cccc(Cl)c2)[C@@H](C)O)CCNC(=O)[C@H]([C@@H](C)O)NC(=O)[C@H](CCN)NC(=O)[C@H](CCN)NC1=O [Example 5, (S)-4-amino-3-(3- chlorophenyl)butanoyl- Thr-Dap-Cyclo[Dab- Dab-DPhe-Leu-Dab- Dab-Thr]] (X1-T[Dap][Dab][Dab][dF]L[Dab][Dab]T; lactam 3-C)
Drug Level in Kidney (μg/g kidney, 4 h) ([1]; mouse, 17.2 mg/kg sc, 4 h): 170 μg/g kidney | Drug Level in Kidney 4 h ([1]; mouse): 170 µg/g kidney | Drug Level in Kidney 16 h ([1]; mouse): 19 µg/g kidney | 4 hr kidney level/rel. cytotoxicity ([1]; ratio of 4 h kidney level to HK-2 IC50 relative to PMB): 15 | Urinary biomarkers of renal toxicity, comparison (in words) [4]: lowest levels of all 3 biomarkers | HK-2 rel to PMB [2]: 11.6 | Kidney histopathology: signs of degeneration or regeneration [5]: None of the animals | MIC P. aeruginosa ATCC 27853 [6]: 0.25 µg/mL (≈ 0.218 µM) | MIC A. baumannii NCTC 13424 [7]: 0.06 µg/mL (≈ 0.0524 µM) | MIC E. coli CA58 [8]: 8 µg/mL (≈ 6.99 µM) | MIC K. pneumoniae CA64 [9]: 16 µg/mL (≈ 14 µM) | MIC P. aeruginosa CCUG 59347 [10]: 0.25 µg/mL (≈ 0.218 µM) | Kidney microscopy: tubular degeneration [11]: 1 showed mild tubular degeneration and 2 showed minimal degeneration | MIC P. aeruginosa IHMA 644636 [12]: 32 µg/mL (≈ 28 µM) | MIC P. aeruginosa IHMA 517175 [13]: 8 µg/mL (≈ 6.99 µM) | MIC E. coli CDF-1 [14]: 8 µg/mL (≈ 6.99 µM) | MIC P. aeruginosa ATCC 27853 [15]: 0.25 µg/mL (≈ 0.218 µM) | MIC A. baumannii NCTC 13301 [16]: 0.06 µg/mL (≈ 0.0524 µM) | MIC K. pneumoniae IHMA 580884 [17]: 16 µg/mL (≈ 14 µM) | MIC K. pneumoniae IHMA 520329 [18]: >64 µg/mL | MIC E. coli IHMA 940398 [19]: 32 µg/mL (≈ 28 µM) | MIC A. baumannii IHMA 517303 [20]: >64 µg/mL | MIC A. baumannii IHMA 851735 [21]: 0.25 µg/mL (≈ 0.218 µM)

Source: US12528837B2, “Aryl substituted polymyxin derivatives” (priority 2018, dated 2026)
